From US7238786B2, “Monoclonal antibody cPAM4” (Immunomedics, Inc., priority 2002, dated 2007) come the findings set out here.

In this data set the test system is CaPan1 tumor. Nature of the data set: Pre-targeting with bsMAb and radiolabeled peptide-haptens in CaPan1 tumor-bearing mice. The conditions noted are these: peptide pre-targeted with bsPAM4, 3-Hours. As to the method:
Mice were sacrificed at 3 and 24 hours after the administration of peptides and the % ID/g determined for the tumor and various tissues.

Where a SMILES comes first, the peptide text is derived from it. Side-chain parts run from the residue outwards. The star is where a group is joined. DTPA = O=C(O)CN(CCN(CC(=O)O)CC(=O)O)CCN(CC(=O)O)CC(=O)*; X1 = NC(=S)NN=CC(=O)*

As to `CC(=O)N[C@@H](CCCCNC(=O)CN(CCN(CCN(CC(=O)O)CC(=O)O)CC(=O)O)CC(=O)O)C(=O)N[C@@H](Cc1ccc(O)cc1)C(=O)N[C@@H](CCCCNC(=O)CN(CCN(CCN(CC(=O)O)CC(=O)O)CC(=O)O)CC(=O)O)C(=O)N[C@@H](CCCCNC(=O)[C@H](CS)NC(=O)C=NNC(N)=S)C(N)=O` [^99mTc-IMP192, metal not drawn] (Ac-K(DTPA)YK(DTPA)K([Cys-X1])-NH2; N-terminus and C-terminus assumed), the “Tumor: Non-Tumor Tissue Ratio, Mean” value is 9.93 (Blood); 8.13 (Kidney); 16.66 (Liver); 15.75 (Lung); 73.29 (Pancreas); 14.62 (Spleen). Moreover, under “Tumor”, the “Tumor: Non-Tumor Tissue Ratio, Mean” value was 1.00.

Consider `CC(=O)N[C@@H](Cc1ccccc1)C(=O)N[C@@H](CCCCNC(=O)CN(CCN(CCN(CC(=O)O)CC(=O)O)CC(=O)O)CC(=O)O)C(=O)N[C@@H](Cc1ccc(O)cc1)C(=O)N[C@@H](CCCCNC(=O)CN(CCN(CCN(CC(=O)O)CC(=O)O)CC(=O)O)CC(=O)O)C(N)=O` [^111In-IMP156, metal not drawn] (Ac-FK(DTPA)YK(DTPA)-NH2; N-terminus and C-terminus assumed), for which the “Tumor: Non-Tumor Tissue Ratio, Mean” value was determined as 36.47 (Blood); 123.24 (Bone); 7.79 (Kidney); 36.07 (Liver); 44.55 (Lung); 155.55 (Pancreas). Further, the “Tumor: Non-Tumor Tissue Ratio, Mean” value reads like this: (Spleen) 33.40; (Tumor) 1.00; (W. Bone) 378.00.
